Measured values: the SangsterLogP compilation

| Structure (SMILES) | logP |
| --- | --- |
| COC(=O)c1cc2ccccc2s1 | 3.21 |
| OCc1cc2cc(Cl)ccc2s1 | 2.71 |
| OCc1cc2ccccc2s1 | 2.08 |
| O=Cc1sc2ccc(Cl)cc2c1Br | 3.89 |
| COc1ccc(OC)c2sc(C=O)cc12 | 2.75 |
| O=Cc1cc2cc(Cl)ccc2s1 | 2.94 |

The next lines start with the values.

| logP | Structure (SMILES) |
| --- | --- |
| 2.11 | COc1ccc(OC)c2sc(CO)cc12 |
| 4.18 | CN(C)N=Cc1cc2cc(Cl)ccc2s1 |
| 3.81 | COC(=O)c1cc2cc(Cl)ccc2s1 |
| 2.97 | COC(=O)c1sc2c(OC)ccc(OC)c2c1N |
| 4.54 | CN(C)N=Cc1sc2ccc(Cl)cc2c1Br |
| 3.6 | OCc1sc2ccc(Cl)cc2c1Br |
| 3.06 | COC(=O)c1cc2ccc([N+](=O)[O-])cc2s1 |
